Test systems include T47D; ACHN; LOX IMVI; 786-0; M14; SN12C; NCI-H460; HOP-62; EKVX; HCT-116; SW-620; OVCAR-3; MDA-MB-231; Malme-3M; OVCAR-8; UACC-257; UACC-62; MOLT-4; SNB-75.
Assay in all cases: inhibition of tumour cell growth, NCI panel, 48 h

Values joined by “and” are separate entries in the source; they are usually repeats but may differ in a detail not shown here. Equal entries are not always repeated.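 Tested at 5 concentrations; 48 h exposure; 96-well plates; endpoints linearly interpolated, else capped at highest concentration. Abbreviation: GI50, concentration required for 50% inhibition of growth.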 Active and inactive are the calls of the source. No stated cut-off is given here; in the data, active = GI50 up to about 1.1 µM and inactive = higher.

As for `CC1(Cc2cc3c(cc2C2(c4ccc([N+](=O)[O-])cc4)OCCO2)OCO3)OCCO1`, the GI50 is > 100 µM (inactive) in the experiment on T47D; 93.3 µM (inactive) in the experiment with ACHN; > 100 µM (inactive) with LOX IMVI; > 100 µM (inactive) in the experiment with 786-0; > 100 µM (inactive) with M14; > 100 µM (inactive) with SN12C. The GI50 is 59.8 µM (inactive) in the experiment on NCI-H460; > 100 µM (inactive) in the experiment with HOP-62; > 100 µM (inactive) in the experiment on EKVX; > 100 µM (inactive) in the experiment with HCT-116; > 100 µM (inactive) in the experiment with SW-620; 69.2 µM (inactive) in the experiment on OVCAR-3. In addition, the GI50 with MDA-MB-231 is 52.6 µM (inactive); in the experiment with Malme-3M, > 100 µM (inactive); in the experiment on OVCAR-8 it was 59.2 µM (inactive); in the experiment with UACC-257 it was 90.4 µM (inactive); with UACC-62 it was 36 µM (inactive); with MOLT-4 it was 32.7 µM (inactive).

As to `O=C1NC(=N/c2ccccc2)/C(=N\c2ccccc2)N1c1ccccc1`, the GI50 with T47D is 15.1 µM (inactive); in the experiment on ACHN, 16.9 µM (inactive); in the experiment with LOX IMVI, 16.3 µM (inactive); in the experiment on 786-0, 15.5 µM (inactive); in the experiment on SN12C, 16.4 µM (inactive); with NCI-H460, 16.5 µM (inactive). For the same compound, the GI50 in the experiment with HOP-62 is 18.5 µM (inactive); with EKVX, 16.7 µM (inactive); in the experiment on HCT-116 it was 17.7 µM (inactive); in the experiment with SW-620 it was 16.5 µM (inactive); in the experiment on MDA-MB-231, 20.8 µM (inactive); in the experiment with Malme-3M, 17.4 µM (inactive). Further, the GI50 in the experiment on SNB-75 was 16.3 µM (inactive); in the experiment on OVCAR-8 it was 15.8 µM (inactive); in the experiment with UACC-257 it was 15.8 µM (inactive); in the experiment on UACC-62, 12.7 µM (inactive); with MOLT-4, 25.9 µM (inactive).

`CN(C)NC(=S)Nc1ccccc1Br`: the GI50 in the experiment on T47D, in the experiment with ACHN, in the experiment with LOX IMVI, in the experiment on 786-0, with M14 and in the experiment with NCI-H460 was > 100 µM (inactive) throughout. Besides, the GI50 with EKVX, in the experiment with HCT-116, in the experiment with SW-620, in the experiment on OVCAR-3, in the experiment on MDA-MB-231 and with Malme-3M was > 100 µM (inactive) each time. Further, the GI50 is 46.5 µM (inactive) with SNB-75; > 100 µM (inactive) in the experiment with OVCAR-8; > 100 µM (inactive) with UACC-257; > 100 µM (inactive) with UACC-62; > 100 µM (inactive) with MOLT-4.

On to `C/C(=N\Nc1nc2ccccc2[nH]1)c1cc2ccccc2cn1`, for which the GI50 is < 0.0352 µM (active) in the experiment with T47D; < 0.0139 µM (active) with ACHN; 0.051 µM (active) with LOX IMVI; 0.048 µM (active) in the experiment with 786-0; < 0.01 µM (active) with M14; < 0.01 µM (active) with SN12C. Also, the GI50 in the experiment on NCI-H460 is 0.0661 µM (active); with HOP-62, 1.11 µM (active); in the experiment on EKVX, < 0.0183 µM (active); with HCT-116, 0.0158 µM (active); in the experiment with SW-620, < 0.012 µM (active); in the experiment on MDA-MB-231, 0.0261 µM (active). For the same compound, the GI50 was < 0.01 µM (active) in the experiment on Malme-3M; 0.317 µM (active) in the experiment on SNB-75; < 0.018 µM (active) with OVCAR-8; 0.0243 µM (active) in the experiment on UACC-257; 0.0531 µM (active) with UACC-62; 0.0117 µM (active) in the experiment on MOLT-4.

On to `COC(=O)CCCC(=O)NC1=C(NCc2ccccc2)C(=O)c2ccccc2C1=O`, for which the GI50 is 59.3 µM (inactive) in the experiment on T47D; 73.8 µM (inactive) in the experiment with ACHN; 46.2 µM (inactive) in the experiment with LOX IMVI; 63.8 µM (inactive) in the experiment with 786-0; 29.6 µM (inactive) in the experiment with M14; 52.5 µM (inactive) with SN12C. The GI50 with NCI-H460 was 52 µM (inactive); with EKVX it was 51.4 µM (inactive); in the experiment on HCT-116, 32.1 µM (inactive); in the experiment on SW-620 it was 60.8 µM (inactive); in the experiment with OVCAR-3, 23 µM (inactive); in the experiment with MDA-MB-231, 50.1 µM (inactive). Further, the GI50 in the experiment with Malme-3M was 15.5 µM (inactive); with SNB-75 it was > 100 µM (inactive); in the experiment with OVCAR-8, 68.4 µM (inactive); in the experiment on UACC-257 it was 29.7 µM (inactive); with UACC-62 it was 29.2 µM (inactive); in the experiment with MOLT-4 it was 34 µM (inactive).

Consider `Cc1ccc(/C=C2/N/C(=N\N=C/C(O)C(O)C(O)C(O)CO)NC2=O)cc1` (centres undefined), for which the GI50 was > 100 µM (inactive) and 99.1 µM (inactive) with T47D; > 100 µM (inactive) in the experiment on ACHN; > 100 µM (inactive) with LOX IMVI; > 100 µM (inactive) in the experiment with 786-0; > 100 µM (inactive) in the experiment on M14; > 100 µM (inactive) with SN12C. Further, the GI50 in the experiment with NCI-H460, in the experiment with HOP-62, in the experiment on EKVX, in the experiment with HCT-116, in the experiment on SW-620 and with OVCAR-3 was > 100 µM (inactive) in each case. Besides, the GI50 in the experiment on MDA-MB-231, with Malme-3M, in the experiment on SNB-75, in the experiment with OVCAR-8 and with UACC-257 was > 100 µM (inactive) in each case.

For `Cc1cc2c(c(S(=O)(=O)c3ccccc3[N+](=O)[O-])c1)NCCC2`, the GI50 was 6.44 µM (inactive) with T47D; 28.9 µM (inactive) in the experiment on ACHN; 47.2 µM (inactive) in the experiment with LOX IMVI; > 100 µM (inactive) with 786-0; 69.8 µM (inactive) with M14; 76.4 µM (inactive) with SN12C. Further, the GI50 with NCI-H460 is 66.7 µM (inactive); in the experiment on HOP-62 it was > 100 µM (inactive); in the experiment on EKVX it was > 100 µM (inactive); in the experiment with SW-620, > 100 µM (inactive); in the experiment on OVCAR-3 it was 65.2 µM (inactive); in the experiment on MDA-MB-231, > 100 µM (inactive). Besides, the GI50 in the experiment with Malme-3M is 44.8 µM (inactive); with SNB-75, > 100 µM (inactive); in the experiment with OVCAR-8, > 100 µM (inactive); in the experiment on UACC-62 it was 17.8 µM (inactive).

Turning to `FC(F)(Sc1ncc[nH]1)c1nc2ccccc2o1`, the GI50 in the experiment with T47D, in the experiment with ACHN, in the experiment on 786-0, in the experiment with M14, with SN12C and with NCI-H460 was > 100 µM (inactive) throughout. The GI50 in the experiment with HOP-62, with HCT-116, in the experiment with SW-620, with OVCAR-3, in the experiment on MDA-MB-231 and with Malme-3M was > 100 µM (inactive) each time. The GI50 in the experiment with SNB-75, in the experiment on OVCAR-8, in the experiment with UACC-257, in the experiment with UACC-62 and with MOLT-4 was > 100 µM (inactive) throughout.

In the case of `NNC(=O)CSc1nnc(CCCCCCCCc2nnc(SCC(=O)NN)o2)o1`, the GI50 in the experiment with T47D, with ACHN, in the experiment on LOX IMVI, in the experiment on 786-0, in the experiment on M14 and in the experiment with SN12C was > 100 µM (inactive) in each case. In addition, the GI50 in the experiment with NCI-H460, with HOP-62, with EKVX, in the experiment with HCT-116, with SW-620 and in the experiment with MDA-MB-231 was > 100 µM (inactive) in each case. For the same compound, the GI50 in the experiment with Malme-3M, in the experiment with SNB-75, in the experiment on OVCAR-8, with UACC-257, in the experiment on UACC-62 and in the experiment with MOLT-4 was > 100 µM (inactive) throughout.

Take `CC1C2CC(CC(=O)N2)C1(C)C` (centres undefined): the GI50 with T47D, in the experiment on ACHN, with 786-0, with M14, in the experiment on SN12C and in the experiment on NCI-H460 was > 100 µM (inactive) each time. Also, the GI50 in the experiment with HOP-62, in the experiment with EKVX, in the experiment on HCT-116, in the experiment with SW-620, with OVCAR-3 and with MDA-MB-231 was > 100 µM (inactive) in each case. Besides, the GI50 in the experiment with Malme-3M, in the experiment on SNB-75, with OVCAR-8, with UACC-257 and with UACC-62 was > 100 µM (inactive) in each case.

For the compound `c1ccc(C(=NNc2cnc3ccccc3n2)c2ccccn2)cc1`, the GI50 was 0.0188 µM (active) in the experiment on T47D; 0.405 µM (active) in the experiment with ACHN; 1.38 µM (inactive) in the experiment with 786-0; 0.425 µM (active) with M14; 0.991 µM (active) in the experiment on SN12C; 1.26 µM (inactive) with NCI-H460. Further, the GI50 was 7.26 µM (inactive) with HOP-62; 0.269 µM (active) in the experiment on EKVX; 1.76 µM (inactive) in the experiment with HCT-116; 0.423 µM (active) in the experiment on SW-620; 0.608 µM (active) with OVCAR-3; 1 µM (active) in the experiment with MDA-MB-231. Further, the GI50 was 0.532 µM (active) with Malme-3M; 5.85 µM (inactive) in the experiment on SNB-75; 0.352 µM (active) in the experiment on OVCAR-8; 0.418 µM (active) in the experiment with UACC-257; 3 µM (inactive) with UACC-62; 0.139 µM (active) in the experiment on MOLT-4.

Regarding `Br[Se]c1ccccn1`, the GI50 in the experiment with T47D was 21.8 µM (inactive); in the experiment with ACHN it was 16.3 µM (inactive); in the experiment with LOX IMVI, 18.7 µM (inactive); in the experiment with 786-0 it was 18.2 µM (inactive); with M14 it was 17.6 µM (inactive); with SN12C, 18.7 µM (inactive). Besides, the GI50 with NCI-H460 was 18.9 µM (inactive); in the experiment with HOP-62, 2.48 µM (inactive); in the experiment with EKVX it was 17.6 µM (inactive); in the experiment with HCT-116, 18.3 µM (inactive); in the experiment on SW-620 it was 23.9 µM (inactive); in the experiment on OVCAR-3, 15.5 µM (inactive). In addition, the GI50 in the experiment with MDA-MB-231 was 17.7 µM (inactive); with Malme-3M it was 17.4 µM (inactive); in the experiment with SNB-75, 17 µM (inactive); in the experiment with OVCAR-8, 19.6 µM (inactive); with UACC-257, 17.8 µM (inactive); with UACC-62 it was 17.1 µM (inactive).

Values taken from ChEMBL document CHEMBL1201862, “PubChem BioAssay data set” (2004).
